{"source": "patent US12673029B2", "about": "“Nanodelivery system based on globulin-1 S allele, preparation method therefor and use thereof” (Zhejiang Gongshang University, priority 2022, dated 2026)", "key": {"[1]": {"test_system": "wheat GSA protein (globulin-1 S allele)", "test": "Fluorescence quenching determination of the binding force of wheat GSA protein to curcumin", "settings": "for KSV (Stern-Volmer dynamic quenching constant): GSA 1 μM, curcumin 1-10 μM", "procedure": "A wheat GSA protein solution and a curcumin solution were mixed in a certain ratio (1:1, 1:2, 1:5, 1:10) at different temperatures (298 K, 303 K, 310 K) for 2 hours. The final concentration of GSA was 1 μM, wherein the molecular weight of GSA was 56.16 KDa and the concentration of curcumin was 1 μM, 2 μM, 5 μM and 10 μM. The excitation spectrum was set at 280 nm, the emission spectrum was from 320 nm to 500 nm, and the recording temperature was 298 K, 303 K, and 310 K.\nAt an excitation wavelength of 280 nm, tryptophan and tyrosine residues will be excited. Binding of proteins and small molecules will lead to a decrease in fluorescence emission. As the concentration of curcumin increased, the fluorescence intensity decreased constantly and a slight red shift appeared.\nFluorescence quenching can be divided into dynamic quenching and static quenching. A dynamic quenching process can be distinguished by a Stern-Volmer equation: F0/F=1+KSV[Q]=1+Kqτ0[Q] (1)\nwherein F0 and F are the GSA fluorescence intensity of the system in the absence and presence of curcumin, respectively; [Q] is the concentration of a quencher curcumin; and Kq is a fluorescence quenching rate constant.\nValues for a static quenching mechanism, a binding constant and the number of binding sites can be obtained from a […] equation: log[(F0-F)/F]=log(Ka)+n log[Q] (2)\nwherein Ka is a binding constant, [Q] is the concentration of curcumin, and n is the number of binding sites. A log-log plot of log[(F0−F)/F] versus log[Q] was made at 298 K, 303 K, and 310 K, respectively, according to the equation, as shown in FIG. 3. Ka and n at different temperatures were obtained from the intercept and slope.\nTo determine the action force between GSA and curcumin, the temperature-dependent thermodynamic parameters (ΔG, ΔH, and ΔS) were calculated using the following equations: -lnK==−ΔH/RT+ΔS/RΔG=ΔH−TΔS (3) • wherein R is a gas constant (8.314 J/mol*K), and T is the experimental temperature."}, "[2]": {"test": "Light stability assay under UV irradiation (absorbance at 426 nm)", "format": "physicochemical", "settings": "30 W UV lamp", "procedure": "0.93 mg of curcumin and 14.96 mg of wheat GSA protein-curcumin composite nanoparticles were accurately weighed to be separately put in petri dishes, and were irradiated at a close range with a 30 W UV lamp, sampling was performed at 0 h, 1 h, 2 h, 3 h, 4 h, 5 h, and 6 h, the samples were separately dissolved with a […], a volume was made up to a constant volume of 250 mL, 10 mL of the prepared solution was taken, and an absorbance at 426 nm was measured, wherein the absorbance was measured for three times to take an average."}, "[3]": {"test_system": "Dendritic cells DC2.4", "test": "Biological activity assay in OVA-sensitized dendritic cells DC2.4 (qRT-PCR of pro-inflammatory cytokines)", "format": "cell-based", "settings": "DC2.4 cells sensitized with OVA, cultured 24 hours", "procedure": "Dendritic cells DC2.4 were sensitized by treatment with ovalbumin (OVA) and cultured for 24 hours with curcumin and wheat GSA protein-curcumin composite nanoparticles as experimental groups, respectively, and relevant experiments were conducted. Total RNA was extracted from the cells, and subjected to reverse transcription according to the instructions to obtain cDNA of relevant cells, and a quantitative reverse transcription polymerase chain reaction (qRT-PCR) was carried out by using a real-time fluorescence quantitative PCR system."}}, "data": [{"compound": "COc1cc(/C=C/C(=O)CC(=O)/C=C/c2ccc(O)c(OC)c2)ccc1O", "note": "[curcumin, Curcumin]", "values": [{"measurement": "Kq (fluorescence quenching rate constant)", "setting": "[1]; 298 K", "value": "1.3981 10^13 L/mol*s"}, {"measurement": "Ka value, order of magnitude", "setting": "[1]; 298 K, 303 K, and 310 K, 120 min", "value": "~10^6"}, {"measurement": "Ka (binding constant)", "setting": "[1]; 298 K, 120 min", "value": "8.5822 10^6 L/mol"}, {"measurement": "KSV (Stern-Volmer dynamic quenching constant)", "setting": "[1]; 298 K", "value": "1.3981 10^5 L/mol"}, {"measurement": "Kq (fluorescence quenching rate constant)", "setting": "[1]; 303 K", "value": "2.0211 10^13 L/mol*s"}, {"measurement": "Ka (binding constant)", "setting": "[1]; 303 K, 120 min", "value": "15.7797 10^6 L/mol"}, {"measurement": "KSV (Stern-Volmer dynamic quenching constant)", "setting": "[1]; 303 K", "value": "2.0211 10^5 L/mol"}, {"measurement": "Kq (fluorescence quenching rate constant)", "setting": "[1]; 310 K", "value": "3.0636 10^13 L/mol*s"}, {"measurement": "Ka (binding constant)", "setting": "[1]; 310 K, 120 min", "value": "16.9238 10^6 L/mol"}, {"measurement": "KSV (Stern-Volmer dynamic quenching constant)", "setting": "[1]; 310 K", "value": "3.0636 10^5 L/mol"}, {"measurement": "absorbance at 426 nm after UV irradiation", "setting": "[2]; 2 h of UV irradiation", "value": 0.606}, {"measurement": "absorbance at 426 nm after UV irradiation", "setting": "[2]; 5 h of UV irradiation", "value": 0.252}, {"measurement": "absorbance at 426 nm after UV irradiation", "setting": "[2]; 6 h of UV irradiation", "value": 0.214}, {"measurement": "decrease of absorbance after UV irradiation", "setting": "[2]; 6 h of UV irradiation", "value": 75, "unit": "%"}, {"measurement": "alleviating effect on the allergic effect produced by OVA (pro-inflammatory cytokine mRNA such as IL-6)", "setting": "[3]", "value": "a certain alleviating effect"}]}]}
